Results reported in patent US5407936A, “Benzimidazole derivative, process for preparing the same, antiemetic agent containing the same as active ingredient and intermediate compound for preparing the same” (priority 1991, dated 1995).

What was measured:
5-HT3 receptor = biological target: T1, 5-HT3 receptor (Rattus norvegicus, UniProt P35563); assay: 5-HT3 antagonistic activity: antagonism of Bezold-Jarisch reflex (reflective bradycardia) induced by 5-HT; assay type: in vivo, S.D. male rats; details: for Duration time of 5-HT3 antagonistic activity: i.v., time until inhibitory rate of reflective bradycardia became 20% or less; for ED50: rat, iv, read-out: ED50 [95% Confidence limits], antagonistic activity against Bezold-Jarisch reflex
T1 construct: S.D. male rats (weighing 200 to 350 g) were anesthetized; from tissue; host or cells: whole anesthetized S.D. male rats (in vivo; endogenous receptor)
T1 sequence (P35563 24-483): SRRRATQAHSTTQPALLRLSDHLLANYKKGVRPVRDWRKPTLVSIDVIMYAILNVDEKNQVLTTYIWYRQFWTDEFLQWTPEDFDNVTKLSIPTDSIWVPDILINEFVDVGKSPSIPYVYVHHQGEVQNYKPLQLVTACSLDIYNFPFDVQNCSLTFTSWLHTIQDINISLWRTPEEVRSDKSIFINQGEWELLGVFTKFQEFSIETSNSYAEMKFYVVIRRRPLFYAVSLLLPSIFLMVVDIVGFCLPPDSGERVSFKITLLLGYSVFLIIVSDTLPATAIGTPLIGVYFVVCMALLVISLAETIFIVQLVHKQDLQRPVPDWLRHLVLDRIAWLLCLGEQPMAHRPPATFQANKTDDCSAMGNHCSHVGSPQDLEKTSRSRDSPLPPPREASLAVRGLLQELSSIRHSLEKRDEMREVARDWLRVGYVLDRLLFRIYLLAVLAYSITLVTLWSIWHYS
Procedure: 5-HT3 antagonistic activity:
The 5-HT3 antagonistic activity was measured in accordance with the method by Collins et al. [Br. J. Pharmacol., 80, 570P (1983)] using as an index the inhibitory activity against reflective bradycardia [Bezold-Jarisch reflex] induced by 5-HT.
That is, S.D. male rats (weighing 200 to 350 g) were anesthetized by intraperitoneal administration of urethane ([…]) and introduced with cannula into the carotid and the pulse frequency was measured. 5-HT was dissolved in physiological saline and intravenously administered (0.04 mg/kg). The test compounds were dissolved in physiological saline or physiological saline containing 5% ethanol and intravenously administered five minutes before the administration of 5-HT.
ED50 values were obtained from a dose-response curve of inhibitory rate of reflective bradycardia by the test compounds and the 5-HT3 antagonistic activity was compared.
In addition, the test compounds (about 25 times amount of the above ED50 value) and 5-HT were intravenously administered in the same manner as mentioned above and thereafter 5-HT (0.04 mg/kg) was intravenously administered with the passage of time.

[1] = system: cisplatin-induced vomiting; assay: Preventive and therapeutic effects against vomiting induced by cisplatin; assay type: in vivo, male ferrets; details: i.v.; for Inhibitory rate, preventive effect: 5 minutes before cisplatin (10 mg/kg), vomiting counted for 4 hours; for Inhibitory rate, therapeutic effect: after appearance of vomiting (about 80 minutes after cisplatin 10 mg/kg), counted for 4 hours
Procedure: Preventive and therapeutic effects against vomiting induced by cisplatin:
The experiment was conducted in accordance with the method by Costall et al. [Neuropharmacology, 26, 1321-1326 (1987)].
That is, male ferrets (weighing 1.0 to 1.6 kg, three animals in each group) underwent an implant operation of cannula at the jugular vein for intravenous administration. For evaluating the preventive effects, the test compounds dissolved in a physiological saline or in a physiological saline containing 5% ethanol or a physiological saline (control) were intravenously administered to the ferrets three days after the operation, then after 5 minutes, cisplatin (10 mg/kg) dissolved in a physiological saline was intravenously administered to the ferrets over 30 seconds, and a number of vomiting caused between just after the administration of cisplatin and 4 hours after the administration was measured. As to the therapeutic effects, cisplatin (10 mg/kg) dissolved in a physiological saline was intravenously administered to the ferrets three days after the operation over 30 seconds. After appearance of vomiting (about 80 minutes after the administration of cisplatin), the test compounds dissolved in a physiological saline or in a physiological saline containing 5% ethanol or a physiological saline (control) were intravenously administered to the ferrets and then a number of vomiting occurred during 4 hours thereafter was counted. The inhibitory rate was calculated by the following formula: Inhibitory rate (%)={1-(mean number of vomiting in the group administered with the test compound/mean number of vomiting in the control group)}×100

ddY Male mice = assay: Acute toxicity; assay type: in vivo; details: 100 mg/kg intravenously; observed for 7 days; five mice per group
From the text: The same as in Experiment 2

[2] = system: vomiting caused by the administration of the chemotherapeutics such as cisplatin; details: Cancer. Chemother. Pharmacol., 23, 389-391 (1989); cited from earlier work

Duration time of 5-HT3 antagonistic activity (5-HT3 receptor; dose 1.0 μg/kg) | SMILES | Inhibitory rate, preventive effect ([1]; 0.01 mg/kg) | Inhibitory rate, therapeutic effect ([1]; 0.01 mg/kg) | 5-HT3 antagonistic activity compared to the compound of the present invention (5-HT3 receptor; in words, reason why duration was not measured) | ED50 (5-HT3 receptor) | Duration time of 5-HT3 antagonistic activity (5-HT3 receptor; dose 100 μg/kg) | Inhibitory rate, preventive effect ([1]; 0.1 mg/kg) | Inhibitory rate, therapeutic effect ([1]; 0.1 mg/kg) | Death of animals (ddY Male mice) | Inhibition of vomiting caused by chemotherapeutics such as cisplatin [2]
> 8 h | CC(C)n1c(N2CCN(C)CC2)nc2cc(Cl)c(N)cc21 [Compound 1, 6-Amino-5-chloro-1-isopropyl-2-(4-methyl-1-piperazinyl)benzimidazole] | 100% | 100% |  |  |  |  |  |  | 
> 8 h | CC(C)n1c(N2CCN(C)CC2)nc2cc(Cl)c(N)cc21.O=C(O)/C=C\C(=O)O.O=C(O)/C=C\C(=O)O [Compound 2, 6-Amino-5-chloro-1-isopropyl-2-(4-methyl-1-piperazinyl)benzimidazole dimaleate] | 85% | 100% |  |  |  |  |  |  | 
 | CN1CCN(c2nc3ccccc3n2C)CC1 [Compound A, 1-Methyl-2-(4-methyl-1-piperazinyl)benzimidazole] |  |  | quite low as compared to the compound of the present invention | > 3 µg/kg |  |  |  |  | 
 | Cc1nccn1CC1CCc2c(c3ccccc3n2C)C1=O (centres unmarked) [Reference compound, Ondansetron] |  |  |  | 4 µg/kg | 2 h | 31% | 77% | all animals were dead | effective
